The subject of this assay is Human Lung Cancer Cell Line A-549. The assay is described as follows: Growth inhibition (% control growth, LC50, TGI, GI50) A-549. The assay is classed as cell-based. The settings on record: Homo sapiens, A549, read-out: LC50, A-549; Molar drug concentrations calculated from graph. The method, then: The therapeutic effect of SA1 (peak 5) and SA2 (peak 4) is evaluated against human lung cancer cell line A-549 by calculating the percentage growth inhibition, drug concentration of test compound needed to inhibit cell growth by 50% (GI50) values.
The therapeutic effect of SACC is evaluated against human lung cancer cell line A-549 by calculating the percentage growth inhibition, drug concentration of test compound needed to inhibit cell growth by 50% (GI50) values.

One may read the LC50 as the concentration lethal to half of the exposed cells or organisms. Turning to `COc1cccc2c1C(=O)c1c(O)c3c(c(O)c1C2=O)C[C@@](O)(C(=O)CO)C[C@@H]3O[C@H]1C[C@H](N)[C@H](O)[C@H](C)O1` [ADR, Adriamycin], the median lethal concentration (LC50) was 143 µM.

The values above are taken from US20260224524A1, “A PHARMACEUTICAL COMPOSITION TARGETING MUTANT P53 AND HER2” (DR DOZO LABORATORIES, priority 2023, published 2026).
